Measured values from patent publication US20100022483A1, “Substituted Tetracycline Compounds” (Paratek Pharmaceuticals, Inc., priority 2008, published 2010).
Converted amounts (≈) assume the structure as drawn. Where two headings read alike, the source gives them in different places.

Columns and labels:
in vitro = assay type: cell-based; settings: Chinese hamster, Cytotox. CHO-K1
3T3 fibroblast cells = assay: In vitro phototoxicity assay (neutral red; UV light-treated vs dark control plates); assay type: cell-based; settings: for Photo Toxicity UV Tox50: UV light 50 minutes; for Photo Toxicity Dark Tox50: dark control plate
In short: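 Neutral red viability readout (A535 after EtOH/acetic acid extraction) compares paired plates: one exposed 50 min to UV at 1.6–1.8 mW/cm^2, one held in darkness, both dosed with compound in HBSS and recovered overnight. 3T3 fibroblast cells used; phototoxicity taken as the difference.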

gram positive bacteria = assay: In vitro anti-bacterial activity assay (broth dilution MIC), gram positive bacteria; assay type: cell-based, S. aureus; settings: 18 h
In short: (§1)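 Broth dilution MIC following CLSI M7-A2: compounds serially diluted, log-phase test strains added to final ~5×10^5 CFU/ml, incubated ~18 hours at 35° C in ambient air. Plates read on microplate reader or visually; MIC is lowest concentration inhibiting growth.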

[1] = Mammalian cytotoxicity assay (resazurin), COS-1 cells; assay type: cell-based; settings: African green monkey, read-out: Cytotox. COS-1
In short: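 Resazurin read-out (0.042 mg/ml, 2 h at 37° C. then 30 min dark, room temperature; fluorescence 535/590 nm) follows 24-hour compound exposure of overnight-seeded cells, serially diluted. IC50 is the concentration giving 50% growth inhibition.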

gram negative bacteria = assay: In vitro anti-bacterial activity assay (broth dilution MIC), gram negative bacteria; assay type: cell-based, E. coli
In short: as §1

[2] = Staphylococcus aureus, S. aureus MRSA5, read-out: Median MIC's G+ S. aureus MRSA5
[3] = Staphylococcus aureus, S. aureus RN450, read-out: Median MIC's G+ S. aureus RN450
[4] = Streptococcus pneumoniae, S. pneumoniae 157E-Strep, read-out: Median MIC's G+ S. pneumoniae 157E-Strep
[5] = Escherichia coli, 18 h, E. coli D1 209, read-out: Median MIC's G− E. coli D1 209
[6] = Escherichia coli, 18 h, E. coli MG 1655, read-out: Median MIC's G− E. coli MG 1655
[7] = Escherichia coli, ATCC25922, 18 h, E. coli ATCC 25922, read-out: Median MIC's G− E. coli ATCC 25922
[8] = Pseudomonas aeruginosa, 18 h, P. aeruginosa K201 PAO6609, read-out: Median MIC's G− P. aeruginosa K201 PAO6609

SMILES	IC50 at 24 h (in vitro)	Photo Toxicity UV Tox50 (3T3 fibroblast cells)	Photo Toxicity Dark Tox50 (3T3 fibroblast cells)	MIC (gram positive bacteria; [2])	MIC (gram positive bacteria; [3])	MIC (gram positive bacteria; [4])	IC50 at 24 h [1]	MIC (gram negative bacteria; [5])	MIC (gram negative bacteria; [6])	MIC (gram negative bacteria; [7])	MIC (gram negative bacteria; [8])
CC(=O)NCCNC(=O)c1cccc(-c2ccc(O)c3c2C[C@H]2C[C@H]4[C@H](N(C)C)C(O)=C(C(N)=O)C(=O)[C@@]4(O)C(O)=C2C3=O)c1 [S]	> 13 µM	>129.75 µM	>129.75 µM	32 µg/mL (≈ 51.7 µM)	2 µg/mL (≈ 3.23 µM)	2 µg/mL (≈ 3.23 µM)	> 13 µM	64 µg/mL (≈ 103 µM)	64 µg/mL (≈ 103 µM)	64 µg/mL (≈ 103 µM)	64 µg/mL (≈ 103 µM)
COCCNCc1ccoc1-c1ccc(O)c2c1C[C@H]1C[C@H]3[C@H](N(C)C)C(O)=C(C(N)=O)C(=O)[C@@]3(O)C(O)=C1C2=O [BQ]	> 141 µM	>140.51 µM	>140.51 µM	4 µg/mL (≈ 7.05 µM)	0.06 µg/mL (≈ 0.106 µM)	0.06 µg/mL (≈ 0.106 µM)	> 141 µM	64 µg/mL (≈ 113 µM)	1 µg/mL (≈ 1.76 µM)	1 µg/mL (≈ 1.76 µM)	64 µg/mL (≈ 113 µM)
CN(C)CCN(C)Cc1ccc(-c2ccc(O)c3c2C[C@H]2C[C@H]4[C@H](N(C)C)C(O)=C(C(N)=O)C(=O)[C@@]4(O)C(O)=C2C3=O)o1 [CZ]	> 13.8 µM	>137.77 µM	>137.77 µM	16 µg/mL (≈ 26.9 µM)	0.06 µg/mL (≈ 0.101 µM)	0.06 µg/mL (≈ 0.101 µM)	> 13.8 µM	16 µg/mL (≈ 26.9 µM)	4 µg/mL (≈ 6.73 µM)	4 µg/mL (≈ 6.73 µM)	64 µg/mL (≈ 108 µM)
CN(C)[C@@H]1C(O)=C(C(N)=O)C(=O)[C@@]2(O)C(O)=C3C(=O)c4c(O)ccc(C(=O)CNCc5ccco5)c4C[C@H]3C[C@@H]12 [CC]	> 44.7 µM	>144.12 µM	>144.12 µM	16 µg/mL (≈ 29 µM)	1 µg/mL (≈ 1.81 µM)	2 µg/mL (≈ 3.63 µM)	> 44.7 µM	64 µg/mL (≈ 116 µM)	32 µg/mL (≈ 58 µM)	32 µg/mL (≈ 58 µM)	64 µg/mL (≈ 116 µM)
CN(C)[C@@H]1C(O)=C(C(N)=O)C(=O)[C@@]2(O)C(O)=C3C(=O)c4c(O)ccc(-c5cnc6ccccc6c5)c4C[C@H]3C[C@@H]12 [G]	14.8 µM	19.29 µM	>159.48 µM	0.5 µg/mL (≈ 0.923 µM)	0.06 µg/mL (≈ 0.111 µM)	0.06 µg/mL (≈ 0.111 µM)	15.9 µM	64 µg/mL (≈ 118 µM)	64 µg/mL (≈ 118 µM)	4 µg/mL (≈ 7.39 µM)	64 µg/mL (≈ 118 µM)
CN(C)[C@@H]1C(O)=C(C(N)=O)C(=O)[C@@]2(O)C(O)=C3C(=O)c4c(O)ccc(-c5cccc(C(=O)NCCN6CCCC6)c5)c4C[C@H]3C[C@@H]12 [CR]	> 39.6 µM	>127.91 µM	>127.91 µM	16 µg/mL (≈ 25.4 µM)	1 µg/mL (≈ 1.59 µM)	0.25 µg/mL (≈ 0.396 µM)	> 39.6 µM	64 µg/mL (≈ 101 µM)	16 µg/mL (≈ 25.4 µM)	64 µg/mL (≈ 101 µM)	64 µg/mL (≈ 101 µM)
CN(C)CCCc1cccc(-c2ccc(O)c3c2C[C@H]2C[C@H]4[C@H](N(C)C)C(O)=C(C(N)=O)C(=O)[C@@]4(O)C(O)=C2C3=O)c1 [DJ]	119 µM	>200 µM	>200 µM	4 µg/mL (≈ 6.95 µM)	0.0625 µg/mL (≈ 0.109 µM)	0.06 µg/mL (≈ 0.104 µM)	141 µM	2 µg/mL (≈ 3.47 µM)	8 µg/mL (≈ 13.9 µM)	2 µg/mL (≈ 3.47 µM)	64 µg/mL (≈ 111 µM)
CN(C)CCNC(=O)c1cccc(-c2ccc(O)c3c2C[C@H]2C[C@H]4[C@@H](N(C)C)C(O)=C(C(N)=O)C(=O)[C@@]4(O)C(O)=C2C3=O)c1 [A]	> 200 µM	M: >200 uM	M: >200 uM	64 µg/mL (≈ 106 µM)	8 µg/mL (≈ 13.2 µM)	4 µg/mL (≈ 6.62 µM)	> 200 µM	64 µg/mL (≈ 106 µM)	64 µg/mL (≈ 106 µM)	64 µg/mL (≈ 106 µM)	64 µg/mL (≈ 106 µM)
COCCCOCCN(C)Cc1cccc(-c2ccc(O)c3c2C[C@H]2C[C@H]4[C@H](N(C)C)C(O)=C(C(N)=O)C(=O)[C@@]4(O)C(O)=C2C3=O)c1 [DE]	> 20 µM	>200 µM	>200 µM	2 µg/mL (≈ 3.08 µM)	0.06 µg/mL (≈ 0.0923 µM)	0.06 µg/mL (≈ 0.0923 µM)	> 20 µM	2 µg/mL (≈ 3.08 µM)	8 µg/mL (≈ 12.3 µM)	2 µg/mL (≈ 3.08 µM)	64 µg/mL (≈ 98.5 µM)
CN(C)CCNC(=O)c1cccc(-c2cc(N(C)C)c3c(c2O)C(=O)C2=C(O)[C@]4(O)C(=O)C(C(N)=O)=C(O)[C@@H](N(C)C)[C@@H]4C[C@@H]2C3)c1 [V, (4S,4aS,5aR,12aS)-4,7-Bis-dimethylamino-9-[3-(2-dimethylamino-ethylcarbamoyl)-phenyl]-3,10,12,12a-tetrahydroxy-1,11-dioxo-1,4,4a,5,5a,6,11,12a-octahydro-naphthacene-2-carboxylic acid amide]	> 125 µM	>125.47 µM	>125.47 µM	64 µg/mL (≈ 98.8 µM)	16 µg/mL (≈ 24.7 µM)	32 µg/mL (≈ 49.4 µM)	> 125 µM	64 µg/mL (≈ 98.8 µM)	64 µg/mL (≈ 98.8 µM)	64 µg/mL (≈ 98.8 µM)	64 µg/mL (≈ 98.8 µM)
CN(C)[C@@H]1C(O)=C(C(N)=O)C(=O)[C@@]2(O)C(O)=C3C(=O)c4c(O)ccc(C(=O)CNCC(C)(C)C)c4C[C@H]3C[C@@H]12 [BP]	> 42.9 µM	>138.32 µM	>138.32 µM	16 µg/mL (≈ 29.5 µM)	2 µg/mL (≈ 3.69 µM)	2 µg/mL (≈ 3.69 µM)	> 42.9 µM	64 µg/mL (≈ 118 µM)	32 µg/mL (≈ 59.1 µM)	32 µg/mL (≈ 59.1 µM)	64 µg/mL (≈ 118 µM)
CN(C)CCC(=O)c1ccc(O)c2c1C[C@H]1C[C@H]3[C@H](N(C)C)C(O)=C(C(N)=O)C(=O)[C@@]3(O)C(O)=C1C2=O [AV]	> 153 µM	>153.46 µM	>153.46 µM	0.5 µg/mL (≈ 0.974 µM)	0.06 µg/mL (≈ 0.117 µM)	0.5 µg/mL (≈ 0.974 µM)	> 153 µM	64 µg/mL (≈ 125 µM)	16 µg/mL (≈ 31.2 µM)	8 µg/mL (≈ 15.6 µM)	64 µg/mL (≈ 125 µM)
CN(C)CCc1ccc(O)c2c1C[C@H]1C[C@H]3[C@H](N(C)C)C(O)=C(C(N)=O)C(=O)[C@@]3(O)C(O)=C1C2=O [BD]	> 121 µM	M: >120.91 uM	M: >120.91 uM	32 µg/mL (≈ 65.9 µM)	0.5 µg/mL (≈ 1.03 µM)	0.13 µg/mL (≈ 0.268 µM)	> 121 µM	64 µg/mL (≈ 132 µM)	4 µg/mL (≈ 8.24 µM)	4 µg/mL (≈ 8.24 µM)	64 µg/mL (≈ 132 µM)
